Assay results taken from patent US20240287078A1, “QUINAZOLINE DERIVATIVES USEFUL AS RAS INHIBITORS” (Redx Pharma PLC, priority 2021, published 2024).

Legend:
Assay type in all cases: biochemical
[1] = target: T1, KRAS G12V (Homo sapiens, UniProt P01116, G12V); experiment: HTRF nucleotide exchange assay (NEA), KRAS G12V; conditions: recombinant human KRAS aa1-188 G12V, 4 nM; 60 min compound incubation, EDA-GTP-DY647P1
T1 construct: 4 nM KRAS; aa1-188 containing the G12V, G12C, G12A or G12S amino acid substitution
Method: (§1) HTRF Nucleotide Exchange Assay Method
(§2) The capacity of compounds to bind KRAS G12D, other KRAS mutants and wildtype RAS isoforms was quantified using a HTRF nucleotide exchange assay. Recombinant human RAS protein (2 nM; aa1-188 KRAS WT, HRAS WT, NRAS WT, or KRAS containing the containing the G12D, G13D or Q61H amino acid substitutions, or 4 nM KRAS; aa1-188 containing the G12V, G12C, G12A or G12S amino acid substitution, an N-terminal 6×His-tag and leader sequence), and 2 nM Europium-labeled anti-6×His antibody were mixed in assay buffer (10 mM HEPES pH7.3, 150 mM NaCl, 5 mM MgCl2, 0.05% BSA, 0.0025% NP-40 and 100 mM KF) with various concentrations of compound in a 384-well plate and a volume of 5 uL. After a 60-minute incubation at room temperature, Sul of 200 nM EDA-GTP-DY647P1 (diluted in assay buffer) was added to the plate. Following 30-minute incubation at room temperature, time-resolved fluorescence was measured on a PerkinElmer Envision plate reader. DMSO (0.3%) and unlabeled GDP (1 μM) or equivalent tool compound were used to generate the Max and Min assay signals, respectively. Data was analysed using a four-parameter logistic model to calculate IC50 values, with at least two independent replicates were performed for each compound.

[2] = target: T2, KRAS G12A (Homo sapiens, UniProt P01116, G12A); experiment: HTRF nucleotide exchange assay (NEA), KRAS G12A; conditions: recombinant human KRAS aa1-188 G12A, 4 nM; 60 min compound incubation, EDA-GTP-DY647P1
T2 construct: 4 nM KRAS; aa1-188 containing the G12V, G12C, G12A or G12S amino acid substitution
Method: as §1, §2

[3] = target: T3, KRAS G13D (Homo sapiens, UniProt P01116, G13D); experiment: HTRF nucleotide exchange assay (NEA), KRAS G13D; conditions: 1 h; recombinant human KRAS aa1-188 G13D, 2 nM; 60 min compound incubation, EDA-GTP-DY647P1
T3 construct: aa1-188 KRAS WT, HRAS WT, NRAS WT, or KRAS containing the containing the G12D, G13D or Q61H amino acid substitutions
Method: as §1
The capacity of compounds to bind KRAS G12D, other KRAS mutants and wildtype RAS isoforms was quantified using a HTRF nucleotide exchange assay. […] After a 60-minute incubation at room temperature, Sul of 200 nM EDA-GTP-DY647P1 (diluted in assay buffer) was added to the plate. Following 30-minute incubation at room temperature, time-resolved fluorescence was measured on a PerkinElmer Envision plate reader. DMSO (0.3%) and unlabeled GDP (1 μM) or equivalent tool compound were used to generate the Max and Min assay signals, respectively. Data was analysed using a four-parameter logistic model to calculate IC50 values, with at least two independent replicates were performed for each compound.

[4] = target: T4, KRAS WT (Homo sapiens, UniProt P01116); experiment: HTRF nucleotide exchange assay (NEA), KRAS WT; conditions: recombinant human KRAS WT aa1-188, 2 nM; 60 min compound incubation, EDA-GTP-DY647P1
T4 construct: aa1-188 KRAS WT, HRAS WT, NRAS WT
Method: as §1, §2

[5] = target: T5, KRAS G12S (Homo sapiens, UniProt P01116, G12S); experiment: HTRF nucleotide exchange assay (NEA), KRAS G12S; conditions: recombinant human KRAS aa1-188 G12S, 4 nM; 60 min compound incubation, EDA-GTP-DY647P1
T5 construct: 4 nM KRAS; aa1-188 containing the G12V, G12C, G12A or G12S amino acid substitution
Method: as §1, §2

[6] = target: T6, KRAS G12C (Homo sapiens, UniProt P01116, G12C); experiment: HTRF nucleotide exchange assay (NEA), KRAS G12C; conditions: recombinant human KRAS aa1-188 G12C, 4 nM; 60 min compound incubation, EDA-GTP-DY647P1
T6 construct: 4 nM KRAS; aa1-188 containing the G12V, G12C, G12A or G12S amino acid substitution
Method: as §1, §2

[7] = target: T7, KRAS G12D (Homo sapiens, UniProt P01116, G12D); experiment: HTRF nucleotide exchange assay (NEA), KRAS G12D; conditions: recombinant human KRAS aa1-188 G12D, 2 nM; 60 min compound incubation, EDA-GTP-DY647P1
T7 construct: aa1-188 KRAS WT, HRAS WT, NRAS WT, or KRAS containing the containing the G12D, G13D or Q61H amino acid substitutions
Method: as §1, §2

[8] = target: T8, KRAS Q61H (Homo sapiens, UniProt P01116, Q61H); experiment: HTRF nucleotide exchange assay (NEA), KRAS Q61H; conditions: recombinant human KRAS aa1-188 Q61H, 2 nM; 60 min compound incubation, EDA-GTP-DY647P1
T8 construct: aa1-188 KRAS WT, HRAS WT, NRAS WT, or KRAS containing the containing the G12D, G13D or Q61H amino acid substitutions
Method: as §1, §2

T1 sequence (P01116 1-188 isoform P01116-2 G12V): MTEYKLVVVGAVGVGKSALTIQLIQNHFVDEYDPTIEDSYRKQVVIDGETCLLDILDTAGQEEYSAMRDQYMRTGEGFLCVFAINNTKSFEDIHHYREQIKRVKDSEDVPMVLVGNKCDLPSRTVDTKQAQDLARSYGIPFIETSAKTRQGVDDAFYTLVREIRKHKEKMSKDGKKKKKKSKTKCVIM
T8 sequence (P01116 1-188 isoform P01116-2 Q61H): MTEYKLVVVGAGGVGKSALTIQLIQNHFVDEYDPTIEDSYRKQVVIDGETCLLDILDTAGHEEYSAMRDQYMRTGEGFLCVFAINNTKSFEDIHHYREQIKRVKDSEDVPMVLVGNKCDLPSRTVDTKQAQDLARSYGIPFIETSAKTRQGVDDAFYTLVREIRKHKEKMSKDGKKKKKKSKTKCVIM
T4 sequence (P01116 1-188 isoform P01116-2): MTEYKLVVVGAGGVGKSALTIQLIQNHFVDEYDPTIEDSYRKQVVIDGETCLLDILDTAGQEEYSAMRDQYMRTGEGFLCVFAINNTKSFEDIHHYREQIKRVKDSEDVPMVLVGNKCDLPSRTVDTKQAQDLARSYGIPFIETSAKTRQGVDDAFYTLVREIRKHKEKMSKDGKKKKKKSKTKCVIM
T7 sequence (P01116 1-188 isoform P01116-2 G12D): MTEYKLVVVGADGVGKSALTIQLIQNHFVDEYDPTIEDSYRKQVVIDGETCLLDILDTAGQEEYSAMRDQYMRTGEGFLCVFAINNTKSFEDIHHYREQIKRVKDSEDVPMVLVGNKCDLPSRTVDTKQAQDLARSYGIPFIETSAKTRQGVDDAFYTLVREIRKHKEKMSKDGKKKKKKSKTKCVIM
T5 sequence (P01116 1-188 isoform P01116-2 G12S): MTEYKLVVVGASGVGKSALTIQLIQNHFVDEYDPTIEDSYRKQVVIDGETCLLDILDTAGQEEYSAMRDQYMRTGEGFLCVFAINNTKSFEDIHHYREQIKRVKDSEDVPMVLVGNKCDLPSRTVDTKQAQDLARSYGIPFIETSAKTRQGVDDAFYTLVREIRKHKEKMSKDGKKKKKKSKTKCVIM
T2 sequence (P01116 1-188 isoform P01116-2 G12A): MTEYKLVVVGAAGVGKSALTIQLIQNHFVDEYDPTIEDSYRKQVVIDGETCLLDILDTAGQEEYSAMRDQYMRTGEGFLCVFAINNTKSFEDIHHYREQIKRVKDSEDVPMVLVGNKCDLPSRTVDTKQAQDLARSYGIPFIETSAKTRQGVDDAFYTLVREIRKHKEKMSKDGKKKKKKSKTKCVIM
T3 sequence (P01116 1-188 isoform P01116-2 G13D): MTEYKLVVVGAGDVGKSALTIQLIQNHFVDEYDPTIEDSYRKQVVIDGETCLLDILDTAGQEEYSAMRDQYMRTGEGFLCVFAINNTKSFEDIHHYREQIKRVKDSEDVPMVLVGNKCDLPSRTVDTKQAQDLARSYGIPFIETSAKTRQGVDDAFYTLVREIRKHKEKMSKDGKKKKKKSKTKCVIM
T6 sequence (P01116 1-188 isoform P01116-2 G12C): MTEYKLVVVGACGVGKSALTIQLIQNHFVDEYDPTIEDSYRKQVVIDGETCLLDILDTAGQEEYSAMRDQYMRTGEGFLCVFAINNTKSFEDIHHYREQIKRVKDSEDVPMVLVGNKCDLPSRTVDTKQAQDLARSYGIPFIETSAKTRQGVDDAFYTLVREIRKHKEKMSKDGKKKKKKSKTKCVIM

- IC50 [1]: 10 to 100 nM
- IC50 [2]: 10 to 100 nM
- inhibition at 10 µM [3]: 10 to 49%
- IC50 [4]: 10 to 100 nM
- IC50 [5]: 100 to 10000 nM
- IC50 [6]: 10 to 100 nM
- IC50 [7]: 10 to 100 nM
- IC50 [8]: 100 to 10000 nM
SMILES: Oc1cc(-c2ccc3c(N4CCCOCC4)nc(OCC45CCCN4CCC5)nc3c2F)c2ccccc2c1 [Example 25, 4-[8-fluoro-2-(1,2,3,5,6,7-hexahydropyrrolizin-8-ylmethoxy)-4-(1,4-oxazepan-4-yl)quinazolin-7-yl]naphthalen-2-ol]
